According to patent US20100317711A1, “STEM-LIKE CELLS AND METHOD FOR REPROGRAMMING ADULT MAMMALIAN SOMATIC CELLS” (GLIAMED, INC., priority 2009, published 2010):

Key:
[1] = tested on: normal human dermal fibroblasts (NHDF); test: Oct4 immunostaining of normal human dermal fibroblasts cultured with GM1485; assay type: cell-based; settings: GM1485 100 μM in serum free medium, 72 hours, versus vehicle
Method: The fibroblasts were harvested from a skin sample was taken from the face of a human cadaver. The skin sample was cut into small fragments and digested with dispase overnight (4° C.). Thereafter the epidermis was separated from the dermis. The dermis fragments were further digested with collagenase for approximately 1 h at 37° C., and then diluted with culture medium and filtered to obtain a suspension of dermal cells. The dermal cells were next purified via magnetic bead separation to yield normal human dermal fibroblasts (“NHDFs”). Second passage normal human dermal fibroblasts (NHDF) were seeded onto poly-D-lysine coated coverslips within wells of 24-well plates, at a density of 4,000 cells/well and cultured overnight in NHDF growth medium from PromoCell GmbH (NHDF GM) consisting of: The NHDF GM was aspirated, the wells were rinsed twice with Hank's balanced salt solution (HBSS), and 400 μL of serum free medium (SFM) supplemented with GM1485 at a final concentration of 100 μM or the vehicle the drug vehicle (SFM). […]

[2] = tested on: human fibroblasts; test: Reprogramming of GM1485-treated human fibroblasts under neural inducing conditions (GFAP, TuJ1 staining); assay type: cell-based; settings: GM1485 100 μM, then FGF2 72 hours and rhEGF 7 days
Method: On day one of this experiment, the human fibroblasts, were plated, grown overnight as described above and then changed to DMEM supplemented with 10% heat inactivated FCS, 1% DMEM non-essential amino acids (Gibco), penicillin/streptomycin/glutamine (Gemini Bioproducts) and amphotericin B with or without GM1485 for 1 day, and reduced the concentration of serum over an 16 h period until the serum was absent, however the concentration of GM1485 was maintained at 100 μM throughout. The cells were maintained in SFM+/−GM1485 and 10 ng/mL FGF2 for 72 hours. On day 4 of the experiment, the culture environment was changed to 0.5 mL of a SFM without FGF2, but with rhEGF at 20 ng/ml. The cells were maintained in SFM supplemented with 20 ng/ml rhEGF for an additional 7 days. On the 11th day all the cells were fixed by aspirating the medium from the wells and replacing it with 0.5 mL/well of 4% paraformaldehyde in phosphate buffered saline (“PBS”) for 15 minutes at room temperature. Thereafter, the cells were briefly rinsed with PBS at room temperature, then washed with PBS at room temperature in three cycles of 5 minutes each. […] FIG. 2 is comprised of a set of 4 fluorescence photomicrographs, shown in inverted mode to allow full visualization in grayscale. […]

[3] = tested on: murine fibroblasts, 3T3 cells; test: Oct4 immunostaining of murine fibroblasts (3T3 cells) cultured with GM1485; assay type: cell-based; settings: GM1485 versus vehicle, no neural induction
Method: In another experiment, the murine fibroblasts, 3T3 cells were cultured in accordance with the protocol described, supra., for Example 1, except that they were not entered into a neural induction environment. Rather, the murine fibroblasts were fixed and stained with rabbit αOct4 antibody. The photomicrographs in FIG. 3 were taken using bright field microscopy using a 20× objective, except the inset, which is a 20× phase contrast photomicrograph of the same microscopic field into which it is set. The arrows point to the corresponding nuclei in the bright field and phase micrographs of the vehicle treated murine fibroblasts. Only the GM1485 treated murine fibroblasts express Oct4.

[4] = tested on: IGF2 expression; test: cDNA array analysis of gene expression after initiating reprogramming with GM1485; assay type: cell-based, human; settings: 48 hours after initiating reprogramming, GM1485 versus vehicle treated cells
Method: It has previously been shown that RIL treatment alters gene expression and that the biologic effects of these compounds are dependent upon cell-cell signaling. Included among these changes are alterations in the secretion of soluble factors (Lowry W E et al. 2008, Proc Natl Acad Sci USA 105, 2883-2888). To begin to explore what changes in gene expression might play a role GM1485-mediated iPS induction, RNA for cDNA array analysis was harvested from GM1485 and vehicle treated cells 48 hours after initiating reprogramming with GM1485.

[5] = tested on: Adult, facial skin-derived human fibroblasts; test: IGF2 blockade during GM1485-mediated iPS induction and neural re-differentiation of human fibroblasts; assay type: cell-based
Method: To test the role of IGF2 in GM1485-mediated iPS induction, an α-IGF2 blocking antibody was included at the onset of induction and maintained in culture for three days.
Adult, facial skin-derived human fibroblasts were cultured in the presence of 100 μM GM1485 in chemically defined medium for 72 hours with (b) or without (a) 40 ng/ml mAb IGF2, a neutralizing antibody (Abcam, Inc.). One set of cells was fixed and stained with rabbit αOct4 (a and b). IGF2 signaling is required of the reprogramming from somatic cells to iPS cells. On the chance that the cells maintained plasticity, cells were continued in culture, but they were switched to culture conditions under which ES cells differentiate along a neural pathway. In specific, the cells were rinsed in PBS and cultured with chemically defined medium supplemented with rhFGF2, 10 ng/ml for an additional 72 hours, after which the cells were rinsed in PBS and the culture medium was replaced with chemically defined medium supplemented with rhEGF, 20 ng/ml. After seven days the cells were rinsed in PBS, fixed in 4% paraformaldehyde in PBS, and processed for immunocytochemistry with TuJ1, a mAb that recognizes neuron-specific βIII-Tubulin.

[6] = tested on: human keratinocytes; test: In vitro treatment of human keratinocytes with GM1485 with or without rhIGF2 (Oct4, Sox2); assay type: cell-based
[7] = tested on: adult rats; test: Cardiac ischemic injury (left anterior descending artery ligation) in adult rats; assay type: in vivo, rat; settings: 5 mg/kg daily intraperitoneal, 30 days after infarction
Method: Adult rats underwent thoracotomy, the heart was isolated, the left anterior descending artery was identified and ligated at its branch point from the left circumflex artery, causing a massive infarction of the left ventricle. The chest was closed, lungs reinflated and the skin closed. The animals began a 30 day regimen of daily intraperitoneal injections of either GM1485 at 5 mg/kg or the saline vehicle in which it was dissolved. On the 30th day after infarction the animals were sacrificed, the hearts harvested, fixed and cryosectioned. […] The histology of the vehicle treated tissue is consistent with an extensive myocardial infarction. […] FIG. 5 is a 2×2 matrix of photomicrographs of cardiac tissue 30 days after infarction and treatment with either vehicle in the top two slides or GM1485 in the bottom two slides. The left upper and lower sections were stained with an αOct4 antiserum and the right upper and lower sections were stained with αSox2 (mAb R&D Systems). Only the GM1485 treated cardiac tissue expresses Oct4 and/or Sox2.

CCC(C)(C)C(=O)C(=O)N1CCC[C@H]1C(=O)O [GM1485, (2S)-1-(3,3-dimethyl-1,2-dioxopentyl)-2-pyrrolidinecarboxylic acid]
Oct4 expression (anti-OCT 3/4 immunostaining) [1]: upregulation of Oct4
reprogramming of fibroblasts to neurons or astrocytes (GFAP, TuJ1) [2]: acquire the ability to be reprogrammed to an alternative cell fate
Oct4 expression (rabbit αOct4 staining) [3]: express Oct4
IGF2 expression increase [4]: 550%
number of genes upregulated by 2 fold or more [4]: Over 100
differentiation to neuronal cells (TuJ1, βIII-Tubulin) ([5]; 100 μM GM1485 72 hours without IGF2 blockade, then rhFGF2 72 hours, rhEGF seven days): differentiated to neuronal cells
reprogramming to iPS cells (rabbit αOct4 staining) ([5]; 100 μM GM1485, 72 hours, without IGF2 blockade): reprogrammed
iPS induction ([6]; GM1485 alone, in vitro): has not previously resulted in iPS induction
Oct4 and Sox2 expression ([6]; GM1485 with rhIGF2 included in cultures): upregulate Oct4 and Sox2 with the same kinetics as treated fibroblasts
histology of heart tissue (H&E stained section) ([7]; versus saline vehicle): consistent with normal myocardium
Oct4 and Sox2 expression in cardiac tissue ([7]; versus vehicle): Oct4 and Sox2 are upregulated
